The values that follow come from ChEMBL document CHEMBL5728971, “Small molecule inhibitors of lactate dehydrogenase and methods of use thereof” (2022).

In general, pIC50 refers to the IC50 on a negative log10 scale, so that one unit is a factor of ten. A word on the IC50: it is the concentration that gives 50% inhibition. A high value points to lower potency.

pIC50: −log10 of the molar value.

This assay can be described thus: Biochemical Assay: Test compounds were placed in a Greiner Bio-One (Monroe, N.C.) 1536-well black solid bottom assay plate. 200 millimolar (mM) Tris HCl, pH 7.4, 100 micromolar (μM) EDTA and 0.01% TWEEN-20™, final concentration, was used as the assay buffer. The LDHA reagent was 2 nanomolar (nM) Human LDHA (Meridian Life Science, Inc., Memphis, Tenn.), final concentration, in assay buffer.

As to `NS(=O)(=O)c1ccc(Cc2c(-c3ccc(F)c(-c4ccccc4)c3)nn(-c3nc(C(=O)O)cs3)c2CC2CC2)cc1F`, the negative-log IC50 (pIC50) was > 7.00.
Turning to `NS(=O)(=O)c1ccc(Cc2c(-c3cccc(-c4ccccc4)c3)nn(-c3nc(C(=O)O)cs3)c2CC2CC2)cc1F`, the pIC50 was > 7.00.
Turning to `NS(=O)(=O)c1ccc(Cc2c(-c3cccc(OC4CCCC4)c3)nn(-c3nc(C(=O)O)cs3)c2CC2CC2)cc1F`, the pIC50 is > 7.00.
In the case of `NS(=O)(=O)c1ccc(Cc2c(-c3cccc(OCc4ccccc4)c3)nn(-c3nc(C(=O)O)cs3)c2CC2CC2)cc1F`, the pIC50 is > 7.00.
Still for that read-out and setting: the result for `NS(=O)(=O)c1ccc(Cc2c(-c3cccc(N4CCC(C(F)(F)F)CC4)c3)nn(-c3nc(C(=O)O)cs3)c2CC2CC2)cc1F` reads > 7.00; that for `NS(=O)(=O)c1ccc(Cc2c(-c3ccc(F)c(C4=CCN(C(=O)C5CC5)CC4)c3)nn(-c3nc(C(=O)O)cs3)c2CC2CC2)cc1F`, > 7.00; that for `NS(=O)(=O)c1ccc(Cc2c(-c3cccc(-c4ccc(F)cc4)c3)nn(-c3nc(C(=O)O)cs3)c2C2CC2)c(F)c1`, > 7.00.
The same measure, in the same setting: the result for `NS(=O)(=O)c1ccc(Cc2c(-c3ccc(F)c(-c4cccc(CN5CCOCC5)c4)c3)nn(-c3nc(C(=O)O)cs3)c2CC2CC2)cc1F` reads > 7.00; that for `NS(=O)(=O)c1ccc(Cc2c(-c3ccc(F)c(CC4CC4)c3)nn(-c3nc(C(=O)O)cs3)c2CC2CC2)cc1F`, > 7.00; that for `NS(=O)(=O)c1ccc(Cc2c(-c3cccc(OCc4ccccc4)c3)nn(-c3nc(C(=O)O)cs3)c2CC2CC2)c(F)c1`, > 7.00.
Consider `COc1cccc(-c2cccc(-c3nn(-c4nc(C(=O)O)cs4)c(C4CC4)c3Cc3ccc(S(N)(=O)=O)cc3F)c2)c1`, for which the pIC50 was > 7.00.
As for `NS(=O)(=O)c1ccc(Cc2c(-c3ccc(F)c(C4=CCNCC4)c3)nn(-c3nc(C(=O)O)cs3)c2CC2CC2)cc1F`, the pIC50 is > 7.00.
As to `Cc1ccc(-c2cccc(-c3c(Cc4ccc(S(N)(=O)=O)cc4F)c(C4CC4)nn3-c3nc(C(=O)O)cs3)c2)cc1`, the concentration for half-maximal inhibition (IC50) result was “in the range around 29000 nM”.
With `NS(=O)(=O)c1ccc(Cc2c(-c3ccc(F)c(C4CCCCC4)c3)nn(-c3nc(C(=O)O)cs3)c2CC2CC2)cc1F`, the negative-log IC50 (pIC50) is > 7.00.
The same measure, in the same setting: the result for `NS(=O)(=O)c1ccc(Cc2c(-c3cccc(-c4cccc(F)c4)c3)nn(-c3nc(C(=O)O)cs3)c2CC2CC2)cc1` reads > 7.00; that for `NS(=O)(=O)c1ccc(Cc2c(-c3ccc(F)c(-c4ccccc4F)c3)nn(-c3nc(C(=O)O)cs3)c2CC2CC2)cc1F`, > 7.00.
Take `COc1cccc(-c2cc(-c3c(Cc4ccc(S(N)(=O)=O)c(F)c4)c(CC4CC4)nn3-c3nc(C(=O)O)cs3)ccc2F)c1`: the 50% inhibitory concentration (IC50) result was “in the range around 29000 nM”.
Take `NS(=O)(=O)c1ccc(Cc2c(-c3cccc(OCc4ccccc4)c3)nn(-c3nc(C(=O)O)cs3)c2CC2CC2)cc1`: the pIC50 was > 7.00.
`NS(=O)(=O)c1ccc(Cc2c(-c3ccc(F)c(C4CC4)c3)nn(-c3nc(C(=O)O)cs3)c2CC2CC2)cc1F`: the negative-log IC50 (pIC50) was > 7.00.
As for `NS(=O)(=O)c1ccc(Cc2c(C3CC3)nn(-c3nc(C(=O)O)cs3)c2-c2cccc(-c3cccc(F)c3)c2)cc1F`, the IC50 entry was “in the range around 29000 nM”.
On the same count and under the same terms, the result for `COc1cccc(-c2cccc(-c3c(Cc4ccc(S(N)(=O)=O)c(F)c4)c(C4CC4)nn3-c3nc(C(=O)O)cs3)c2)c1` reads “in the range around 29000 nM”.
Turning to `CCOC(=O)c1csc(-n2nc(-c3cccc(-c4ccc(C)cc4)c3)c(Cc3ccc(S(N)(=O)=O)cc3F)c2CC2CC2)n1`, the negative-log IC50 (pIC50) is < 4.24.
As to `Cc1ccc(-c2cccc(-c3c(Cc4ccc(S(N)(=O)=O)c(F)c4)c(C4CC4)nn3-c3nc(C(=O)O)cs3)c2)cc1`, the IC50 entry is “in the range around 29000 nM”.
For the molecule `COc1cccc(-c2cc(-c3nn(-c4nc(C(=O)O)cs4)c(CC4CC4)c3Cc3ccc(S(N)(=O)=O)cc3F)ccc2F)c1`, the negative logarithm of the IC50 (pIC50) was > 7.00.
For `CC(c1ccccc1)c1cc(-c2nn(-c3nc(C(=O)O)cs3)c(CC3CC3)c2Cc2ccc(S(N)(=O)=O)c(F)c2)ccc1F` (configuration not stated), the pIC50 was > 7.00.
As to `NS(=O)(=O)c1ccc(Cc2c(-c3cccc(-c4cccc(F)c4)c3)nn(-c3nc(C(=O)O)cs3)c2C2CC2)c(F)c1`, the pIC50 was > 7.00.
As to `NS(=O)(=O)c1ccc(Cc2c(-c3cccc(-c4cccc(F)c4)c3)nn(-c3nc(C(=O)O)cs3)c2CC2CC2)cc1F`, the negative logarithm of the IC50 (pIC50) is > 7.00.
As to `CNS(=O)(=O)c1ccc(Cc2c(-c3ccc(F)c(-c4cccc(F)c4)c3)nn(-c3nc(C(=O)O)cs3)c2CC2CC2)cc1F`, the IC50 entry was “in the range around 550 nM”.
For `NS(=O)(=O)c1ccc(Cc2c(-c3ccc(F)c(C4CCCC4)c3)nn(-c3nc(C(=O)O)cs3)c2CC2CC2)cc1F`, the negative logarithm of the IC50 (pIC50) is > 7.00.
Still for that read-out and setting: the result for `COc1cccc(-c2cc(-c3nn(-c4nc(C(=O)O)cs4)c(CC4CC4)c3Cc3ccc(S(N)(=O)=O)c(F)c3)ccc2F)c1` reads > 7.00.
In the case of `NS(=O)(=O)c1ccc(Cc2c(-c3cccc(S(F)(F)(F)(F)F)c3)nn(-c3nc(C(=O)O)cs3)c2CC2CC2)cc1F`, the pIC50 was > 7.00.
`NS(=O)(=O)c1ccc(Cc2c(CC3CC3)nn(-c3nc(C(=O)O)cs3)c2-c2ccc(F)c(-c3cccc(F)c3)c2)cc1F`: the IC50 result is “in the range around 29000 nM”.
As to `CCOC(=O)c1csc(-n2nc(-c3ccc(F)c(-c4ccc(C)cc4)c3)c(Cc3ccc(S(N)(=O)=O)c(F)c3)c2CC2CC2)n1`, the IC50 entry was “in the range around 29000 nM”.
Turning to `CCOC(=O)c1csc(-n2nc(-c3cccc(OC4CCCC4)c3)c(Cc3ccc(S(N)(=O)=O)c(F)c3)c2CC2CC2)n1`, the IC50 result is “in the range around 29000 nM”.
As for `NS(=O)(=O)c1ccc(Cc2c(C3CC3)nn(-c3nc(C(=O)O)cs3)c2-c2cccc(-c3ccc(F)cc3)c2)cc1F`, the IC50 result is “in the range around 29000 nM”.
On to `NS(=O)(=O)c1ccc(Cc2c(-c3cccc(-c4ccc(F)cc4)c3)nn(-c3nc(C(=O)O)cs3)c2C2CC2)cc1F`, for which the negative logarithm of the IC50 (pIC50) is > 7.00.
As to `Cc1ccc(-c2cccc(-c3nn(-c4nc(C(=O)O)cs4)c(CC4CC4)c3Cc3ccc(S(N)(=O)=O)c(F)c3)c2)cc1`, the negative logarithm of the IC50 (pIC50) is > 7.00.
With `CCOC(=O)c1csc(-n2nc(-c3cccc(OC4CCCC4)c3)c(Cc3ccc(S(N)(=O)=O)cc3F)c2CC2CC2)n1`, the IC50 entry was “in the range around 29000 nM”.
For `CCOC(=O)c1csc(-n2nc(-c3ccc(F)c(-c4ccc(F)cc4)c3)c(Cc3ccc(S(N)(=O)=O)cc3F)c2CC2CC2)n1`, the IC50 result is “in the range around 29000 nM”.
Take `CC(C)c1cc(-c2nn(-c3nc(C(=O)O)cs3)c(CC3CC3)c2Cc2ccc(S(N)(=O)=O)c(F)c2)ccc1F`: the pIC50 is > 7.00.
As to `NS(=O)(=O)c1ccc(Cc2c(C3CC3)nn(-c3nc(C(=O)O)cs3)c2-c2cccc(-c3cccc(F)c3)c2)c(F)c1`, the half-inhibitory concentration (IC50) result is “in the range around 29000 nM”.
On the same count and under the same terms, the result for `NS(=O)(=O)c1ccc(Cc2c(C3CC3)nn(-c3nc(C(=O)O)cs3)c2-c2cccc(-c3ccc(F)cc3)c2)c(F)c1` reads “in the range around 29000 nM”.
`NS(=O)(=O)c1ccc(Cc2c(-c3cccc(OC4CCCC4)c3)nn(-c3nc(C(=O)O)cs3)c2CC2CC2)cc1`: the pIC50 was > 7.00.
Regarding `CN1CCC(c2cc(-c3nn(-c4nc(C(=O)O)cs4)c(CC4CC4)c3Cc3ccc(S(N)(=O)=O)c(F)c3)ccc2F)CC1`, the pIC50 is > 7.00.
With `CCOC(=O)c1csc(-n2nc(-c3cccc(-c4ccccc4)c3)c(Cc3ccc(S(N)(=O)=O)c(F)c3)c2CC2CC2)n1`, the pIC50 was < 4.24.
The same measure, in the same setting: the result for `NS(=O)(=O)c1ccc(Cc2c(-c3cccc(C4CCCC4)c3)nn(-c3nc(C(=O)O)cs3)c2CC2CC2)cc1` reads > 7.00; that for `NS(=O)(=O)c1ccc(Cc2c(-c3cccc(-c4cccc(F)c4)c3)nn(-c3nc(C(=O)O)cs3)c2C2CC2)cc1F`, > 7.00; that for `NS(=O)(=O)c1ccc(Cc2c(-c3ccc(F)c(C4=COCCC4)c3)nn(-c3nc(C(=O)O)cs3)c2CC2CC2)cc1F`, > 7.00.
On the same count and under the same terms, with `NS(=O)(=O)c1ccc(Cc2c(-c3ccc(F)c(CCCCC(F)(F)F)c3)nn(-c3nc(C(=O)O)cs3)c2CC2CC2)cc1F` the figure was > 7.00.
Consider `NS(=O)(=O)c1ccc(Cc2c(-c3ccc(F)c(-c4cccc(F)c4)c3)nn(-c3nc(C(=O)O)cs3)c2CC2CC2)cc1F`, for which the pIC50 is > 7.00.
As for `NS(=O)(=O)c1ccc(Cc2c(CC3CC3)nn(-c3nc(C(=O)O)cs3)c2-c2cccc(OCc3ccccc3)c2)cc1`, the concentration for half-maximal inhibition (IC50) entry is “in the range around 29000 nM”.
For the molecule `NS(=O)(=O)c1cccc(Cc2c(-c3ccc(F)c(-c4cccc(F)c4)c3)nn(-c3nc(C(=O)O)cs3)c2CC2CC2)c1`, the IC50 entry is “in the range around 29000 nM”.
In the case of `NS(=O)(=O)c1ccc(Cc2c(-c3ccc(F)c(C4C5CC6CC(C5)CC4C6)c3)nn(-c3nc(C(=O)O)cs3)c2CC2CC2)cc1F` (configuration not stated), the half-maximal inhibitory concentration (IC50) result was “in the range around 550 nM”.
`COc1cccc(-c2cccc(-c3c(Cc4ccc(S(N)(=O)=O)cc4F)c(C4CC4)nn3-c3nc(C(=O)O)cs3)c2)c1`: the IC50 result was “in the range around 29000 nM”.
In the case of `NS(=O)(=O)c1ccc(Cc2c(-c3ccc(F)c(C4CCC4)c3)nn(-c3nc(C(=O)O)cs3)c2CC2CC2)cc1F`, the negative logarithm of the IC50 (pIC50) is > 7.00.
As for `COc1cccc(-c2cc(-c3c(Cc4ccc(S(N)(=O)=O)cc4F)c(CC4CC4)nn3-c3nc(C(=O)O)cs3)ccc2F)c1`, the IC50 entry is “in the range around 29000 nM”.
As for `CCC(C)(C)c1cc(-c2nn(-c3nc(C(=O)O)cs3)c(CC3CC3)c2Cc2ccc(S(N)(=O)=O)c(F)c2)ccc1F`, the pIC50 is > 7.00.
Take `Cc1ccc(-c2cccc(-c3nn(-c4nc(C(=O)O)cs4)c(C4CC4)c3Cc3ccc(S(N)(=O)=O)cc3F)c2)cc1`: the pIC50 was > 7.00.
In the case of `Cc1ccc(-c2cccc(-c3nn(-c4nc(C(=O)O)cs4)c(C4CC4)c3Cc3ccc(S(N)(=O)=O)c(F)c3)c2)cc1`, the pIC50 is > 7.00.
In the case of `NS(=O)(=O)c1ccc(Cc2c(-c3cccc(OC4CCCC4)c3)nn(-c3nc(C(=O)O)cs3)c2CC2CC2)c(F)c1`, the pIC50 was > 7.00.
Turning to `NS(=O)(=O)c1ccc(Cc2c(-c3ccc(F)c(C4CCOCC4)c3)nn(-c3nc(C(=O)O)cs3)c2CC2CC2)cc1F`, the pIC50 is > 7.00.
As to `CC(C)(C)Cc1cc(-c2nn(-c3nc(C(=O)O)cs3)c(CC3CC3)c2Cc2ccc(S(N)(=O)=O)c(F)c2)ccc1F`, the pIC50 is > 7.00.
